Laboratory results taken from paper PMC6270420, “Antibacterial Activity of Salicylanilide 4-(Trifluoromethyl)benzoates” (Molecules, 2013).
≈ marks a conversion by molar mass, not a printed value. Where two headings read alike, the source gives them in different places.

Experiments:
[1] = tested on: M. kansasii 6509/96 (clinically isolated strain); assay: Antimycobacterial MIC micromethod; assay type: cell-based; settings: Mycobacterium kansasii, read-out: MIC M. kansasii 6509/96
HepG2 cells = assay: Cytotoxicity evaluation (CellTiter 96 MTS); assay type: cell-based, human; settings: Homo sapiens, read-out: IC50 HepG2
Procedure: Seven esters and their parent salicylanilides with the most robust antimicrobial activity were tested for cytotoxicity in the human hepatocellular liver carcinoma cell line HepG2 (passages 21–24; ECACC, Salisbury, UK) using a standard colorimetric method measuring a tetrazolium salt reduction (CellTiter(R) 96 AQueous One Solution Assay, Promega G3580, Madison, WI, USA).
The cells were routinely cultured in Minimum Essentials Eagle Medium (Sigma-Aldrich, Darmstadt, Germany) supplemented with 10% foetal bovine serum (PAA; Biotech, Prague, Czech Republic), 1% of L-glutamine solution (Sigma-Aldrich), and non-essential amino acids solution (Sigma-Aldrich) in a humidified atmosphere containing 5% CO2 at 37 °C. For subculturing, the cells were harvested after trypsin/EDTA (Sigma-Aldrich) treatment at 37 °C. The cells treated with the tested substances were used as experimental groups. Untreated HepG2 cells were used as control groups.
The cells were seeded in density 1 × 10^4 cells per well in a 96-well plate with microscopic control. Next day, the cells were treated with each of the tested substances. […] The most of the tested compounds were prepared in incubation concentrations of 0.01–20 µM in triplicates. 4-(Trifluoromethyl)benzoic acid was applied in the concentrations of 10–4,000 µM in triplicates. The following types of controls were included: determination of 100% viability and 0% viability (the cells treated by 10% DMSO), no cell control and vehiculum controls. These checking samples were prepared in triplicates.
The treated cells were incubated together with controls at 37 °C for 24 h in 5% CO2 atmosphere. After this time reagent from the kit CellTiter 96 AQueous One Solution Cell Proliferation Assay was added. The CellTiter 96 assay is based on the reduction of tetrazolium salt MTS [3-(4,5-dimethylthiazol-2-yl)-5-(3-carboxymethoxyphenyl)-2-(4-sulfophenyl)-2H-tetrazolium] to water-soluble formazan dye by metabolically active cells. The reduction of the reagent is attributed to availability of NADH or NADPH. The decline in levels of these metabolically important compounds in the cell causes that the production of formazan is reduced. The tested plate was incubated for 2 h at 37 °C and 5% CO2 and after this time, the absorbance was recorded at 490 nm using a 96-well plate reader (TECAN, Infinite M200, Grödig, Austria).
The results were expressed as inhibitory concentration which is necessary to inhibit cell viability to 50% from the maximal (control) viability (IC50). A standard toxicological parameter IC50 was calculated in each of the tested substances using GraphPad Prism software (version 5.02; GraphPad Software Inc., San Diego, CA, USA).

Mtb. Praha 1 = assay: microbe, parasite or virus in culture; assay type: cell-based; settings: Mycobacterium tuberculosis, read-out: MIC Mtb. Praha 1
[2] = target: T1, mycobacterial isocitrate lyase (ICL1, Rv0467) (Mycobacterium tuberculosis, UniProt P9WKK7); assay: Isocitrate lyase inhibition assay (ICL1); assay type: biochemical, Mycobacterium tuberculosis H37Rv; settings: 10 μmol/L; read-out: % ICL inhibition at 10 μmol/L (± standard deviation)
T1 construct: His tag (from pET-28b(+)); made in house; host or cells: E. coli BL21(DE3), pET-28b(+) plasmid
T1 sequence (P9WKK7 1-428): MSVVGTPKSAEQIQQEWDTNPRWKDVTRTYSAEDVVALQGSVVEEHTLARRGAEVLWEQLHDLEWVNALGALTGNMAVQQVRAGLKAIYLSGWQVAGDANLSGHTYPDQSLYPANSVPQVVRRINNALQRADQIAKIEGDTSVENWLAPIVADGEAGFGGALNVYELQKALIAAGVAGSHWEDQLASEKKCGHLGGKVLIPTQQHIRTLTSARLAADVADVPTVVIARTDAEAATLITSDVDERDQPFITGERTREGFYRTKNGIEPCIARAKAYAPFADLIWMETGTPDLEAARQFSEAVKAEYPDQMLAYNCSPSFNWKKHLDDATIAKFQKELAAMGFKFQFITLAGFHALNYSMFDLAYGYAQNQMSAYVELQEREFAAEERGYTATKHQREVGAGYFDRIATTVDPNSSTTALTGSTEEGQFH

[3] = tested on: Mycobacterium tuberculosis, M. avium and M. kansasii; assay: Antimycobacterial MIC, summary over all mycobacterial strains; assay type: cell-based
[4] = tested on: Mycobacterium avium 330/88; assay: Antimycobacterial MIC micromethod; assay type: cell-based
Mtb. 234/2005 = assay: microbe, parasite or virus in culture; assay type: cell-based; settings: Mycobacterium tuberculosis, read-out: MIC Mtb. 234/2005
[5] = tested on: Mycobacterium tuberculosis 331/88 (H37Rv); assay: Antimycobacterial MIC micromethod, Šula's medium; assay type: cell-based
Mtb. 9449/2006 = assay: microbe, parasite or virus in culture; assay type: cell-based; settings: Mycobacterium tuberculosis, read-out: MIC Mtb. 9449/2006
[6] = tested on: Mycobacterium kansasii 235/80; assay: Antimycobacterial MIC micromethod; assay type: cell-based; settings: read-out: MIC M. kansasii 235/80
Mtb. 53/2009 = assay: microbe, parasite or virus in culture; assay type: cell-based; settings: Mycobacterium tuberculosis, read-out: MIC Mtb. 53/2009
Mtb. 7357/1988 = assay: microbe, parasite or virus in culture; assay type: cell-based; settings: Mycobacterium tuberculosis, read-out: MIC Mtb. 7357/1988
Mtb. Praha 131 (XDR-TB) = assay: microbe, parasite or virus in culture; assay type: cell-based; settings: Mycobacterium tuberculosis, read-out: MIC Mtb. Praha 131 (XDR-TB)
M. kansasii = assay: Antimycobacterial MIC, summary for M. kansasii; assay type: cell-based; settings: Mycobacterium kansasii, both strains; read-out: MICs towards M. kansasii
[7] = tested on: eight Gram-positive and Gram-negative strains; assay: Antibacterial microdilution, summary over eight strains; assay type: cell-based; settings: read-out: MIC, antibacterial action
Procedure: The in vitro antibacterial activity was assayed against eight Gram-positive and Gram-negative strains: Staphylococcus aureus CCM 4516/08, methicillin-resistant Staphylococcus aureus H 5996/08 (MRSA), Staphylococcus epidermidis H 6966/08, Enterococcus sp. J 14365/08; Escherichia coli CCM 4517, Klebsiella pneumoniae D 11750/08, ESBL-positive Klebsiella pneumoniae J 14368/08, and Pseudomonas aeruginosa CCM 1961.
The microdilution broth method modified according to standard M07-A07 in Mueller-Hinton broth (HiMedia Laboratories, Mumbai, India) adjusted to pH 7.4 (±0.2) was used. The tested compounds were dissolved in DMSO to the final concentrations ranging from […]. Benzylpenicillin (penicillin G) was used as a comparative drug. Bacterial inoculum in sterile water was prepared to match 0.5 McFarland scale ([…]). The minimum inhibitory concentrations were assayed as 90% (IC90) or higher reduction of growth when compared to the control. The determination of results was performed visually and spectrophotometrically (at 540 nm). The values of MICs were determined after 24 and 48 h of incubation in the darkness at 35 °C (±0.1) in a humid atmosphere.

[8] = 336 h, 14 d, read-out: MIC Mtb. 331/88
[9] = 504 h, 21 d, read-out: MIC Mtb. 331/88

O=C(Oc1ccc(Br)cc1C(=O)Nc1ccc(C(F)(F)F)cc1)c1ccc(C(F)(F)F)cc1 [1r]
MIC ([1]; 168 h, 7 d): 1 µM (≈ 0.532 µg/mL)
MIC ([1]; 336 h, 14 d): 2 µM (≈ 1.06 µg/mL)
MIC ([1]; 504 h, 21 d): 4 µM (≈ 2.13 µg/mL)
IC50 (HepG2 cells; HepG2, 24 h): 2.03 µM
MIC (Mtb. Praha 1; 336 h): 0.5 µM (≈ 0.266 µg/mL)
MIC (Mtb. Praha 1; 504 h): 1 µM (≈ 0.532 µg/mL)
inhibition at 10 µM [2]: ≥ 20%
MIC ([3]; range over all strains and times, read-out: MICs against all mycobacterial strains): 1 to 4 µM (≈ 0.532 to 2.13 µg/mL)
MIC ([4]; 330/88, 336 h, 14 d): 2 µM (≈ 1.06 µg/mL)
MIC ([4]; 330/88, 504 h, 21 d): 4 µM (≈ 2.13 µg/mL)
MIC (Mtb. 234/2005; 336 h): 0.5 µM (≈ 0.266 µg/mL)
MIC (Mtb. 234/2005; 504 h): 1 µM (≈ 0.532 µg/mL)
MIC [5, 8]: 1 µM (≈ 0.532 µg/mL)
MIC [5, 9]: 1 µM (≈ 0.532 µg/mL)
MIC ([5]; time not stated, read-out: MIC against M. tuberculosis): 1 µM (≈ 0.532 µg/mL)
MIC (Mtb. 9449/2006; 336 h): 1 µM (≈ 0.532 µg/mL)
MIC (Mtb. 9449/2006; 504 h): 1 µM (≈ 0.532 µg/mL)
MIC ([6]; 235/80, 168 h, 7 d): 1 µM (≈ 0.532 µg/mL)
MIC ([6]; 235/80, 336 h, 14 d): 2 µM (≈ 1.06 µg/mL)
MIC ([6]; 235/80, 504 h, 21 d): 4 µM (≈ 2.13 µg/mL)
MIC (Mtb. 53/2009; 336 h): 1 µM (≈ 0.532 µg/mL)
MIC (Mtb. 53/2009; 504 h): 2 µM (≈ 1.06 µg/mL)
MIC (Mtb. 7357/1988; 336 h): 1 µM (≈ 0.532 µg/mL)
MIC (Mtb. 7357/1988; 504 h): 1 µM (≈ 0.532 µg/mL)
MIC (Mtb. Praha 131 (XDR-TB); 336 h): 0.5 µM (≈ 0.266 µg/mL)
MIC (Mtb. Praha 131 (XDR-TB); 504 h): 1 µM (≈ 0.532 µg/mL)

O=C(O)c1ccc(C(F)(F)F)cc1 [CF3-BA, 4-(trifluoromethyl)benzoic acid, reference compound]
MIC (M. kansasii): ≥ 250 µM
MIC ([1]; 168 h): 250 µM (≈ 47.5 µg/mL)
MIC ([1]; 336 h, 14 d): 1000 µM (≈ 190 µg/mL)
MIC ([1]; 504 h, 21 d): 1000 µM (≈ 190 µg/mL)
IC50 (HepG2 cells; HepG2, 24 h, cytotoxicity): 564 µM
susceptibility of other mycobacteria ([3]; at 1,000 µmol/L, mycobacteria other than M. kansasii): completely insusceptible
MIC ([4]; 330/88, 336 h, 14 d): > 1000 µM
MIC ([4]; 330/88, 504 h, 21 d): > 1000 µM
MIC [5, 8]: > 1000 µM
MIC [5, 9]: > 1000 µM
MIC [7]: > 500 µM
MIC ([6]; 235/80, 168 h, 7 d): 1000 µM (≈ 190 µg/mL)
MIC ([6]; 235/80, 336 h, 14 d): > 1000 µM
MIC ([6]; 235/80, 504 h, 21 d): > 1000 µM
